Experimental data taken from patent US6242440A, “Synergistic compositions comprising an oxathiazine and a benzothiophene-2-carboxamide-S,S-dioxide” (Janssen Pharmaceutica N.V., priority 1997, dated 2001).

Key:
Aspergillus niger = experiment: poison plate assay, mycelial growth and sporulation; format: cell-based
Description: (§1) The efficacy of the active ingredients against mycelial growth and sporulation of Aureobasidium pullulans, Aspergillus niger, Scierophoma entoxylina, Trichodenna viride, was determined in the poison plate assay. The required concentrations of the fungicide(s) were obtained by diluting the active ingredients (I), (II) or the combination of (I) and (II) in dimethyl sulfoxide (DMSO) at 800 times the final test concentration. The stock solutions in DMSO were pipetted into Petri-dishes. Malt extract agar (3%) was added aseptically and uniform distribution was obtained by shaking. Each plate was spot inoculated with a spore or mycelial suspension. After incubation at 22° C. and 70% relative humidity for a period long enough to allow complete growth of controls, diameters of colonies were measured. Relative activities were calculated by taking the absence of fungal growth (diameter 0 mm) as 100%. From the activity of the active ingredients alone, the expected activities E were calculated by using the so-called formula of Colby: (Colby, S. R. Weeds 1967, 15: 20-22), [formula]
(§2) wherein X and Y express the relative activities obtained for each of the active ingredients. A synergistic effect can be acknowledged if the found activity exceeds calculated activity.
(§3) Equal efficacy was observed whenever complete inhibition of fungal growth occurred by one of the active ingredients (I) or (II) alone. The compound of formula (I) used in the experiment was 3-benzo[b]-thien-2-yl)-5,6-dihydro-1,4,2-oxathiazine 4-oxide, i.e. compound (1). The compound of formula (II) used in the experiment was N-cyclohexyl-benzothiophene-2-carboxamide-S,S-dioxide, i.e. compound (2).

Aureobasidium pullulans = experiment: as above; format: cell-based
Description: as §1, §2, §3

Sclerophoma entoxylina = experiment: as above; format: cell-based
Description: as §1, §2, §3

Trichoderma viride = experiment: as above; format: cell-based
Description: as §1, §2, §3

Aureobasidium = experiment: wood stick test (Scots Pine); format: cell-based, Aureobasidium pullulans; details: read-out: measured (relative) activity %
Description: (§4) Oven-dried wood sticks (50×12×2 mm) of Scots Pine (Pinus sylvestris) were dipped during 3 hours in a methanol solution comprising a compound of formula (I), a compound of formula (II), or a combination of a compound of formula (I) and a compound of formula (II), and allowed to dry overnight in a sterile laminar air flow. In each Petri dish one stick was placed on culture medium, PDA PS (Potato Dextrose Agar containing 60 mg penicillin and 200 mg streptomycin), previously seeded with inoculum. Two drops of fungal or spore suspension were pipetted on the upper surface of the stick The Petri dishes were incubated at 22° C. and 70% relative humidity. The test was evaluated after sufficient growth of the fungus on the control sticks. The following score system was used:
(§5) 0: sticks free of fungal growth
(§6) 1: traces of growth on the stick
(§7) 2: slight growth (5 to 25% of the surface covered)
(§8) 3 : moderate growth (25 to 50% of the surface covered)
(§9) 4: vigorous to maximum growth (more tha 50% covered)
(§10) To calculate synergism results were converted to the next artificial activities:
(§11) Yhe expected activities E were calculated by using the so-called formula of Colby: (Colby, S. R. Weeds 1967, 15: 20-22), [formula]
as §2
(§12) The compound of formula (I) used in the experiment was 3-benzo[b]-thien-2-yl)-5,6-dihydro-1,4,2-oxathiazine 4-oxide, i.e. compound (1). The compound of formula (II) used in the experiment was N-cyclohexyl-benzothiophene-2-carboxamide-S,S-dioxide, i.e. compound (2).

Aspergillus = experiment: wood stick test (Scots Pine); format: cell-based, Aspergillus niger
Description: as §4, §5, §6, §7, §8, §9, §10, §11, §2, §12

Sclerophoma = experiment: wood stick test (Scots Pine); format: cell-based, Sclerophoma entoxylina
Description: as §4, §5, §6, §7, §8, §9, §10, §11, §2, §12

Q: What does the source list for `O=C(NC1CCCCC1)C1=Cc2ccccc2S1(=O)=O` [compound (2), N-cyclohexyl-benzothiophene-2-carboxamide-S,S-dioxide]?
A: activity measured (Aspergillus niger; Exp 1, 5 days, (2) 2.5 mg/l): 0%; growth (Aspergillus niger; Exp 1, 5 days, (2) 2.5 mg/l): 44 mm; activity measured (Aspergillus niger; Exp 1, 5 days, (2) 5 mg/l): 5%; growth (Aspergillus niger; Exp 1, 5 days, (2) 5 mg/l): 42 mm; activity measured (Aspergillus niger; Exp 1, 5 days, (2) 10 mg/l): 23%; growth (Aspergillus niger; Exp 1, 5 days, (2) 10 mg/l): 34 mm; activity measured (Aspergillus niger; Exp 1, 5 days, (2) 20 mg/l): 70%; growth (Aspergillus niger; Exp 1, 5 days, (2) 20 mg/l): 13 mm; activity measured (Aspergillus niger; Exp 2, 7 days, (2) 2.5 mg/l): 2%; growth (Aspergillus niger; Exp 2, 7 days, (2) 2.5 mg/l): 44 mm; activity measured (Aspergillus niger; Exp 2, 7 days, (2) 5 mg/l): 2%; growth (Aspergillus niger; Exp 2, 7 days, (2) 5 mg/l): 44 mm; activity measured (Aspergillus niger; Exp 2, 7 days, (2) 10 mg/l): 9%; growth (Aspergillus niger; Exp 2, 7 days, (2) 10 mg/l): 41 mm; activity measured (Aspergillus niger; Exp 2, 7 days, (2) 20 mg/l): 36%; growth (Aspergillus niger; Exp 2, 7 days, (2) 20 mg/l): 29 mm; activity measured (Aureobasidium pullulans; Exp 1, 5 days, (2) 2.5 mg/l): 8%; growth (Aureobasidium pullulans; Exp 1, 5 days, (2) 2.5 mg/l): 35 mm; activity measured (Aureobasidium pullulans; Exp 1, 5 days, (2) 5 mg/l): 16%; growth (Aureobasidium pullulans; Exp 1, 5 days, (2) 5 mg/l): 32 mm; activity measured (Aureobasidium pullulans; Exp 1, 5 days, (2) 10 mg/l): 37%; growth (Aureobasidium pullulans; Exp 1, 5 days, (2) 10 mg/l): 24 mm; activity measured (Aureobasidium pullulans; Exp 1, 5 days, (2) 20 mg/l): 53%; growth (Aureobasidium pullulans; Exp 1, 5 days, (2) 20 mg/l): 18 mm; activity measured (Aureobasidium pullulans; Exp 2, 7 days, (2) 2.5 mg/l): 2%; growth (Aureobasidium pullulans; Exp 2, 7 days, (2) 2.5 mg/l): 47 mm; activity measured (Aureobasidium pullulans; Exp 2, 7 days, (2) 5 mg/l): 6%; growth (Aureobasidium pullulans; Exp 2, 7 days, (2) 5 mg/l): 45 mm; activity measured (Aureobasidium pullulans; Exp 2, 7 days, (2) 10 mg/l): 8%; growth (Aureobasidium pullulans; Exp 2, 7 days, (2) 10 mg/l): 44 mm; activity measured (Aureobasidium pullulans; Exp 2, 7 days, (2) 20 mg/l): 23%; growth (Aureobasidium pullulans; Exp 2, 7 days, (2) 20 mg/l): 37 mm; activity measured (Sclerophoma entoxylina; Exp 1, 5 days, (2) 2.5 mg/l): 7%; growth (Sclerophoma entoxylina; Exp 1, 5 days, (2) 2.5 mg/l): 40 mm; activity measured (Sclerophoma entoxylina; Exp 1, 5 days, (2) 5 mg/l): 16%; growth (Sclerophoma entoxylina; Exp 1, 5 days, (2) 5 mg/l): 36 mm; activity measured (Sclerophoma entoxylina; Exp 1, 5 days, (2) 10 mg/l): 19%; growth (Sclerophoma entoxylina; Exp 1, 5 days, (2) 10 mg/l): 35 mm; activity measured (Sclerophoma entoxylina; Exp 1, 5 days, (2) 20 mg/l): 40%; growth (Sclerophoma entoxylina; Exp 1, 5 days, (2) 20 mg/l): 26 mm; activity measured (Sclerophoma entoxylina; Exp 2, 7 days, (2) 2.5 mg/l): 2%; growth (Sclerophoma entoxylina; Exp 2, 7 days, (2) 2.5 mg/l): 48 mm; activity measured (Sclerophoma entoxylina; Exp 2, 7 days, (2) 5 mg/l): 4%; growth (Sclerophoma entoxylina; Exp 2, 7 days, (2) 5 mg/l): 47 mm; activity measured (Sclerophoma entoxylina; Exp 2, 7 days, (2) 10 mg/l): 16%; growth (Sclerophoma entoxylina; Exp 2, 7 days, (2) 10 mg/l): 41 mm; activity measured (Sclerophoma entoxylina; Exp 2, 7 days, (2) 20 mg/l): 29%; growth (Sclerophoma entoxylina; Exp 2, 7 days, (2) 20 mg/l): 35 mm; activity measured (Trichoderma viride; Exp 1, 5 days, (2) 2.5 mg/l): 0%; growth (Trichoderma viride; Exp 1, 5 days, (2) 2.5 mg/l): 49 mm; activity measured (Trichoderma viride; Exp 1, 5 days, (2) 5 mg/l): 0%; growth (Trichoderma viride; Exp 1, 5 days, (2) 5 mg/l): 49 mm; activity measured (Trichoderma viride; Exp 1, 5 days, (2) 10 mg/l): 0%; growth (Trichoderma viride; Exp 1, 5 days, (2) 10 mg/l): 49 mm; activity measured (Trichoderma viride; Exp 1, 5 days, (2) 20 mg/l): 14%; growth (Trichoderma viride; Exp 1, 5 days, (2) 20 mg/l): 42 mm; activity measured (Trichoderma viride; Exp 2, 7 days, (2) 2.5 mg/l): 0%; growth (Trichoderma viride; Exp 2, 7 days, (2) 2.5 mg/l): 49 mm; activity measured (Trichoderma viride; Exp 2, 7 days, (2) 5 mg/l): 0%; growth (Trichoderma viride; Exp 2, 7 days, (2) 5 mg/l): 49 mm; activity measured (Trichoderma viride; Exp 2, 7 days, (2) 10 mg/l): 8%; growth (Trichoderma viride; Exp 2, 7 days, (2) 10 mg/l): 45 mm; activity measured (Trichoderma viride; Exp 2, 7 days, (2) 20 mg/l): 24%; growth (Trichoderma viride; Exp 2, 7 days, (2) 20 mg/l): 37 mm; activity at 200 ppm (Aureobasidium; (2) 200 ppm): 0%; activity at 400 ppm (Aureobasidium; (2) 400 ppm): 75%; activity at 800 ppm (Aureobasidium; (2) 800 ppm): 95%; % overgrown of the sticks (Aspergillus; (2) 200 ppm): 100%; stick test scores (Aspergillus; (2) 200 ppm): 4 (vigorous to maximum growth (more tha 50% covered)); % overgrown of the sticks (Aspergillus; (2) 400 ppm): 100%; stick test scores (Aspergillus; (2) 400 ppm): 4 (vigorous to maximum growth (more tha 50% covered)); % overgrown of the sticks (Aspergillus; (2) 800 ppm): 100%; stick test scores (Aspergillus; (2) 800 ppm): 4 (vigorous to maximum growth (more tha 50% covered)); activity at 200 ppm (Aspergillus; Aspergillus, (2) 200 ppm, read-out: measured (relative) activity %): 0%; activity at 400 ppm (Aspergillus; Aspergillus, (2) 400 ppm, read-out: measured (relative) activity %): 0%; activity at 800 ppm (Aspergillus; Aspergillus, (2) 800 ppm, read-out: measured (relative) activity %): 0%; % overgrown of the sticks (Sclerophoma; (2) 200 ppm): 100%; stick test scores (Sclerophoma; (2) 200 ppm): 4 (vigorous to maximum growth (more tha 50% covered)); % overgrown of the sticks (Sclerophoma; (2) 400 ppm): 100%; stick test scores (Sclerophoma; (2) 400 ppm): 4 (vigorous to maximum growth (more tha 50% covered)); % overgrown of the sticks (Sclerophoma; (2) 800 ppm): 25%; stick test scores (Sclerophoma; (2) 800 ppm): 2 (slight growth (5 to 25% of the surface covered)); activity at 200 ppm (Sclerophoma; Sclerophoma entoxylina, (2) 200 ppm, read-out: measured (relative) activity %): 0%; activity at 400 ppm (Sclerophoma; Sclerophoma entoxylina, (2) 400 ppm, read-out: measured (relative) activity %): 0%; activity at 800 ppm (Sclerophoma; Sclerophoma entoxylina, (2) 800 ppm, read-out: measured (relative) activity %): 75%
